This passage reports IC50 results from US7605163B2, “Benzoyl-piperazine derivatives” (Hoffmann-La Roche Inc., priority 2003, dated 2009).

The target of the test is T1, mGlyT-1b (Mus musculus, UniProt P28571).
T1 construct: host or cells: Flp-in-CHO cells
T1 sequence (P28571 1-651 isoform P28571-2): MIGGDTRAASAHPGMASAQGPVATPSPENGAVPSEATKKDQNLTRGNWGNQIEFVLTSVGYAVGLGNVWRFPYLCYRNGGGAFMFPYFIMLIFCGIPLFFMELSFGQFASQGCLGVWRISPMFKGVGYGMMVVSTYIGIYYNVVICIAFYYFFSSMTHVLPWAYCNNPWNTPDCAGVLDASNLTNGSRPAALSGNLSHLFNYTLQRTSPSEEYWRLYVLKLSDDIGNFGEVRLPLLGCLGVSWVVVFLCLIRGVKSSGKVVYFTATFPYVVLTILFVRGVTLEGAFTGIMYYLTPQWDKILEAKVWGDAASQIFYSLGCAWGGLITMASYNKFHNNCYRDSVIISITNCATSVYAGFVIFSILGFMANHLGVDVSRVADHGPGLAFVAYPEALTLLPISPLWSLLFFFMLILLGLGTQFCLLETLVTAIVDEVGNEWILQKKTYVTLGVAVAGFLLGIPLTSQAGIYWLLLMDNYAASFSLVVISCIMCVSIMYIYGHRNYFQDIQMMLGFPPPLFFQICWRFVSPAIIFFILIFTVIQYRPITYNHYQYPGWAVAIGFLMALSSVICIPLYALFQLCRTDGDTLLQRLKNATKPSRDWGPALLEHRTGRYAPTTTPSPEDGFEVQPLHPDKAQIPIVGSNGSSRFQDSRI
In words: Glycine Uptake Inhibition Assay (mGlyT-1b). It counts as cell-based. To be noted: [3H]-glycine uptake inhibition at GlyT-1, Flp-in-CHO cells transfected with mGlyT-1b cDNA. The procedure: DMEM complete medium: Nutrient mixture F-12 (Gibco Life-technologies), fetal bovine serum (FBS) 5%, (Gibco life technologies), Penicillin/Streptomycin 1% (Gibco life technologies), Hygromycin 0.6 mg/ml (Gibco life technologies), Glutamine 1 mM Gibco life technologies)
Uptake buffer (UB): 150 mM NaCl, 10 mM Hepes-Tris, pH 7.4, 1 mM CaCl2, 2.5 mM KCl, 2.5 mM MgSO4, 10 mM (+) D-glucose. Flp-in™-CHO (Invitrogen Cat n^o R758-07) cells stably transfected with mGlyT1b cDNA.
Glycine Uptake Inhibition Assay (mGlyT-1b)
On day 1 mammalian cells, (Flp-in™-CHO), transfected with mGlyT-1b cDNA, were plated at the density of 40,000 cells/well in complete F-12 medium, without hygromycin in 96-well culture plates. On day 2, the medium was aspirated, and the cells were washed twice with uptake buffer (UB). The cells were then incubated for 20 min at 22° C. with either (i) no potential competitor, (ii) 10 mM non-radioactive glycine, (iii) a concentration of a potential inhibitor. A range of concentrations of the potential inhibitor was used to generate data for calculating the concentration of inhibitor resulting in 50% of the effect (e.g. IC50, the concentration of the competitor inhibiting glycine uptake of 50%).
A solution was then immediately added containing [^3H]-glycine 60 nM (11-16 Ci/mmol) and 25 μM non-radioactive glycine. The plates were incubated with gentle shaking, and the reaction was stopped by aspiration of the mixture and washing (three times) with ice-cold UB. The cells were lysed with scintillation liquid, shaken 3 hours and the radioactivity in the cells counted using a scintillation counter.
As for `CNS(=O)(=O)c1ccc(OC2CCCC2)c(C(=O)N2CCN(c3ccc(C#N)cc3F)CC2)c1` [compound 507], the half-inhibitory concentration (IC50) came to 31 nM.

Consider `CC(C)COc1ccc(S(C)(=O)=O)cc1C(=O)N1CCN(c2cc(F)c(C#N)c(F)c2)CC1` [compound 169], for which half-maximal inhibition (IC50) was put at 12 nM.

Compound `CC(Oc1ccc(S(C)(=O)=O)cc1C(=O)N1CCN(c2ccc(C#N)cc2F)CC1)C(F)(F)F` (racemic) [compound 299] gave an IC50 of 44 nM.

Regarding `CC(C)COc1ccc(S(C)(=O)=O)cc1C(=O)N1CCN(c2ccc(S(C)(=O)=O)c(F)c2)CC1` [compound 371], the 50% inhibitory concentration (IC50) stood at 41 nM.

For `CC(Oc1ccc(S(C)(=O)=O)cc1C(=O)N1CCN(c2cc(F)c(C#N)cc2F)CC1)C(F)(F)F` (racemic) [compound 261], the IC50 came out at 43 nM.

In the case of `CC(C)(C)Oc1ccc(S(C)(=O)=O)cc1C(=O)N1CCN(c2cc(F)c(C#N)cc2F)CC1` [compound 234], the half-inhibitory concentration (IC50) is 43 nM.

The compound `CC(Oc1ccc(S(C)(=O)=O)cc1C(=O)N1CCN(c2ccc(C(F)(F)F)cc2)CC1)C(F)(F)F` (single isomer, unassigned) [compound 468] gave an IC50 of 20 nM.

In turn, `CC(C)Oc1ccc(S(C)(=O)=O)cc1C(=O)N1CCN(c2ccc(C#N)c(F)c2F)CC1` [compound 109] had an IC50 of 21 nM.

As to `CC(Oc1ccc(S(C)(=O)=O)cc1C(=O)N1CCN(c2ccc(Cl)c(Cl)c2)CC1)C(F)(F)F` (racemic) [compound 258], the IC50 was 86 nM.

The compound `CS(=O)(=O)c1ccc(OC(CF)CF)c(C(=O)N2CCN(c3ccc(C(F)(F)F)cc3C#N)CC2)c1` [compound 194] yielded an IC50 of 47 nM.

Compound `CC(=O)c1ccc(N2CCN(C(=O)c3cc(S(C)(=O)=O)ccc3OC3CCC3)CC2)c(F)c1` [compound 311] had an IC50 of 45 nM.

On to `CNS(=O)(=O)c1ccc(OCC(C)C)c(C(=O)N2CCN(c3ccc(C#N)c(F)c3)CC2)c1` [compound 475], for which the concentration for half-maximal inhibition (IC50) was 40 nM.

`CC(Oc1ccc(S(C)(=O)=O)cc1C(=O)N1CCN(c2ccc(C(F)(F)F)c(F)c2)CC1)C(F)(F)F` (racemic) [compound 303] displayed an IC50 of 6 nM.

`CC(Oc1ccc(S(C)(=O)=O)cc1C(=O)N1CCN(c2ccc(C(F)(F)F)cn2)CC1)C(F)(F)F` (racemic) [compound 408] showed an IC50 of 37 nM.

`CC(Oc1ccc(S(C)(=O)=O)cc1C(=O)N1CCN(c2ccc(C#N)cc2)CC1)C(F)(F)F` (racemic) [compound 298]: the midpoint of inhibition, the IC50, lay at 21 nM.

For `CNS(=O)(=O)c1ccc(OCC(F)(F)F)c(C(=O)N2CCN(c3ccc(C#N)cc3F)CC2)c1` [compound 534], the IC50 came out at 49 nM.

Regarding `O=C(c1cc([N+](=O)[O-])ccc1OCC(F)(F)C(F)(F)F)N1CCN(c2ccc(C(F)(F)F)cc2)CC1` [Example 100, [5-Nitro-2-(2,2,3,3,3-pentafluoro-propoxy)-phenyl]-[4-(4-trifluoromethyl-phenyl)-piperazin-1-yl]-methanone], 20 nM corresponded to half-maximal inhibition (IC50).

As for `CC(=O)c1ccc(N2CCN(C(=O)c3cc(S(C)(=O)=O)ccc3OC(C)C)CC2)c(F)c1` [Example 1, 1-{3-fluoro-4-[4-(2-isopropoxy-5-methanesulfonyl-benzoyl)-piperazin-1-yl]-phenyl}-ethanone], 39 nM corresponded to half-maximal inhibition (IC50).

Compound `CCC(C)Oc1ccc([N+](=O)[O-])cc1C(=O)N1CCN(c2ccc(C(F)(F)F)cc2)CC1` (racemic) [Example 78, Rac-(2-sec-Butoxy-5-nitro-phenyl)-[4-(4-trifluoromethyl-phenyl)-piperazin-1-yl]-methanone] showed an IC50 of 12 nM.

The compound `O=C(c1cc([N+](=O)[O-])ccc1OCC(F)(F)F)N1CCN(c2ccc(C(F)(F)F)cc2)CC1` [Example 84, [5-Nitro-2-(2,2,2-trifluoro-ethoxy)-phenyl]-[4-(4-trifluoromethyl-phenyl)-piperazin-1-yl]-methanone] showed an IC50 of 40 nM.

With `CS(=O)(=O)c1ccc(OC2CCCC2)c(C(=O)N2CCN(c3c(F)cc(C#N)cc3F)CC2)c1` [compound 167], the IC50 worked out at 16 nM.

Turning to `O=C(c1cc([N+](=O)[O-])ccc1OCCCl)N1CCN(c2ccc(C(F)(F)F)cc2)CC1` [Example 92, [2-(2-Chloro-ethoxy)-5-nitro-phenyl]-[4-(4-trifluoromethyl-phenyl)-piperazin-1-yl]-methanone], the IC50 was determined as 50 nM.

In turn, `CS(=O)(=O)c1ccc(OCC2CC2)c(C(=O)N2CCN(c3ccc(Cl)cc3C#N)CC2)c1` [compound 228] yielded a half-inhibitory concentration (IC50) of 47 nM.

For `CC(=O)c1ccc(N2CCN(C(=O)c3cc(S(C)(=O)=O)ccc3OCC3CC3)CC2)cc1F` [compound 369], it took 32 nM to reach half-maximal inhibition (IC50).

Compound `CC(C)Oc1ccc(S(C)(=O)=O)cc1C(=O)N1CCN(c2ccc(S(=O)(=O)C3CCC3)cc2F)CC1` [compound 570] displayed an IC50 of 46 nM.

In turn, `CCS(=O)(=O)c1ccc(N2CCN(C(=O)c3cc(S(C)(=O)=O)ccc3OC3CCCCC3)CC2)c(F)c1` [compound 564] came in with an IC50 of 41 nM.

Turning to `CS(=O)(=O)c1ccc(OCC(F)(F)C(F)F)c(C(=O)N2CCN(c3ccc(C#N)c(F)c3)CC2)c1` [compound 209], half-maximal inhibition (IC50) was put at 41 nM.

In turn, `CCC(C)Oc1ccc(S(C)(=O)=O)cc1C(=O)N1CCN(c2ccc(C#N)c(F)c2)CC1` (racemic) [compound 322] returned an IC50 of 28 nM.

For the compound `CC(Oc1ccc(S(C)(=O)=O)cc1C(=O)N1CCN(c2ccc(C(F)(F)F)cn2)CC1)C(F)(F)F` (single isomer, unassigned) [compound 464], half-maximal inhibition (IC50) was put at 20 nM.

Compound `CCC(C)Oc1ccc(S(C)(=O)=O)cc1C(=O)N1CCN(c2ccc(S(=O)(=O)CC)cc2F)CC1` (racemic) [compound 568] displayed an IC50 of 44 nM.

`CS(=O)(=O)c1ccc(OCC2CCC2)c(C(=O)N2CCN(c3cc(F)c(C#N)cc3F)CC2)c1` [compound 146] yielded an IC50 of 19 nM.

As for `CS(=O)(=O)c1ccc(OC2CCCCC2)c(C(=O)N2CCN(c3ccc(C(F)(F)F)c(F)c3)CC2)c1` [compound 287], the half-maximal inhibitory concentration (IC50) was determined as 33 nM.

In turn, `CC(C)(C)COc1ccc([N+](=O)[O-])cc1C(=O)N1CCN(c2ccc(C(F)(F)F)cc2)CC1` [Example 68, [2-(2,2-Dimethyl-propoxy)-5-nitro-phenyl]-[4-(4-trifluoromethyl-phenyl)-piperazin-1-yl]-methanone] had an IC50 of 8 nM.

Compound `CC(C)(C)COc1ccc(S(C)(=O)=O)cc1C(=O)N1CCN(c2ccc(C(F)(F)F)c(F)c2)CC1` [compound 295] registered an IC50 of 16 nM.

Compound `CC(C)(C)COc1ccc(S(C)(=O)=O)cc1C(=O)N1CCN(c2ccc(C#N)c(F)c2)CC1` [compound 292] registered an IC50 of 21 nM.

Compound `CS(=O)(=O)c1ccc(OC2CCCC2)c(C(=O)N2CCN(c3ncc(C(F)(F)F)cc3F)CC2)c1` [compound 439] showed a half-maximal inhibitory concentration (IC50) of 21 nM.

The compound `C[C@H](Oc1ccc(S(C)(=O)=O)cc1C(=O)N1CCN(c2ncc(C(F)(F)F)cc2F)CC1)C(F)(F)F` (racemic) [compound 470] registered an IC50 of 30 nM.

`CCCCOc1ccc([N+](=O)[O-])cc1C(=O)N1CCN(c2ccc(C(F)(F)F)cc2)CC1` [Example 66, (2-Butoxy-5-nitro-phenyl)-[4-(4-trifluoromethyl-phenyl)-piperazin-1-yl]-methanone] came in with an IC50 of 32 nM.

Consider `COCCOc1ccc([N+](=O)[O-])cc1C(=O)N1CCN(c2ccc(C(C)=O)cc2F)CC1` [Example 54, 1-(3-Fluoro-4-{4-[2-(2-methoxy-ethoxy)-5-nitro-benzoyl]-piperazin-1-yl}-phenyl)-ethanone], for which it took 50 nM to reach half-maximal inhibition (IC50).

The IC50 is the concentration needed to halve the response being measured. A high value points to a need for much substance.
